The record followed here is patent US20240408222A1, “COMPOUNDS, PHARMACEUTICAL COMPOSITIONS, AND METHODS FOR THE TREATMENT, PREVENTION, OR MANAGEMENT OF HYPERPRO[…]” (VINCERX PHARMA GMBH, priority 2021, published 2024).

Where a name gives a salt, the structure may show the parent alone.

The subject of experiment [1] is 786-O. The experiment in a line: Cytotoxicity assay (Version 2, automated, AC50) with/without neutrophil elastase. The class given is cell-based, human. As to conditions: Version 2, activity concentration at −50%. As for the experimental part:
(§1) Cultivation of cells was performed according to standard procedures with the media recommended by the provider. The cells, in a total volume of 100 μL, were seeded in a 96-well plate with a white bottom (#3610). After a 24 h incubation period at 37° C. and […], the medium was exchanged by adding 90 μL fresh medium. The treatment started by adding the test compound in 10 μL of culture medium to the cells in triplicates. Concentrations ranging from 10^−5 M to 10^−13 M were chosen. Two identically treated sets of samples were prepared. One set was treated with the test compound alone, whereas to the second set the compound and 10 nM elastase was added followed by a 72 h incubation period at 37° C. and […]. The proliferation was detected using the MTT assay (ATCC). At the end of the incubation period the MTT reagent was added to all samples for 4 h. Lysis of the cells followed by addition of the detergent was done overnight. The formed dye was detected at 570 nm. The proliferation of untreated but otherwise identically handled cells was define as the 100% value.
(§2) The cytotoxicity assay (Version 2) was performed as described above. Some changes were applied as the assays were performed in an automated fashion and the IC50 values determination was changed. Here the change in metabolic activity of the cells, in percent, was calculated by normalization of the measured values to the absorbance values of medium containing wells without cells (═−100%) and the absorbance of the DMSO-treated cells (═0%). AC50 values (activity concentration at −50%) were determined by means of a 4 parameter Hill-fit using GeneData Screener software.

Experiment [2] concerns HT29. The experiment is described as above. The class given is cell-based, human. The conditions noted are these: Version 2, activity concentration at −50%. The protocol:
as §1, §2

For experiment [3], the system named is NCI H292. Described as above. The format is cell-based, human. The conditions noted are these: Version 2, activity concentration at −50%. As for the experimental part: as §1, §2
For experiment [4], the system named is 786-O. As to the kind of experiment: Cytotoxicity in vitro (MTT) in presence/absence of elastase. The class given is cell-based, human. As to conditions: 72 h. The protocol:
as §1

The subject of experiment [5] is HT29. The experiment is described as above. The class given is cell-based, human. As to conditions: 72 h. As for the experimental part:
as §1

Experiment [6] concerns NCI H292. Described as above. The class given is cell-based, human. The conditions noted are these: 72 h. As for the experimental part: as §1
For experiment [7], the system named is SUM149. The description is as above. The format is cell-based. The conditions noted are these: 72 h. The protocol: as §1
Experiment [8] concerns SUM149. As to the kind of experiment: Cytotoxicity assay (Version 2, automated, AC50) with/without neutrophil elastase. The format is cell-based. As to conditions: Version 2, activity concentration at −50%. As for the experimental part: as §1, §2
The mark [9] stands for this setting: without (−) neutrophil elastase.
Where [10] appears, read: HT29, with (+) neutrophil elastase.
Where [11] appears, read: HT29, without (−) neutrophil elastase.
Where [12] appears, read: NCI H292, with (+) neutrophil elastase.
Setting [13] is: NCI H292, without (−) neutrophil elastase.
[14] abbreviates: HT29, with (+) 10 nM neutrophil elastase.
Setting [15] is: NCI H292, with (+) 10 nM neutrophil elastase.
Setting [16] is: SUM149, with (+) 10 nM neutrophil elastase.
Setting [17] is: SUM149, without (−) neutrophil elastase.
The mark [18] stands for this setting: SUM149, with (+) neutrophil elastase.

With `CCCNC(=O)Nc1cccc(S(=O)(=O)Nc2cccc([C@H](CC(=O)O)NC(=O)Nc3ccc(NC(=O)NCCN(C)CCN(C)CCN(C)CC(=O)N[C@@H](CC(N)=O)C(=O)N4CCC[C@H]4C(=O)N[C@H](C(=O)N=[S@@](C)(=O)Cc4cc5cc(c4)OCCCCCNc4cc(ccc4F)-c4nc(ncc4F)N5)C(C)C)cc3)c2)c1` (relative stereo) [Compound 16], the AC50 – broadly, the concentration at which the activity in the assay is half-maximal – in experiment [1] (with (+) neutrophil elastase) is 11 to 100 nM; in experiment [1] (setting [9]) it was above 1000 nM; in experiment [2] (setting [10]), at most 10 nM; in experiment [2] (setting [11]) it was above 1000 nM; in experiment [3] (setting [12]), 11 to 100 nM; in experiment [3] (setting [13]), 100 to 1000 nM. For the same molecule, the values for the concentration at half-maximal activity (AC50) in experiment [8] (setting [18]) and in experiment [8] (setting [17]) were 11 to 100 nM and above 1000 nM, respectively. The IC50 (commonly the midpoint of a concentration-inhibition curve) was 1.1 to 10 nM in experiment [4] (with (+) 10 nM neutrophil elastase); above 100 nM in experiment [4] (setting [9]); at most 1 nM in experiment [5] (setting [14]); above 100 nM in experiment [5] (setting [11]); at most 1 nM in experiment [6] (setting [15]); 11 to 100 nM in experiment [6] (setting [13]). Further, the IC50 in experiment [7] (setting [16]) is 1.1 to 10 nM; in experiment [7] (setting [17]), 11 to 100 nM.

Regarding `CCCNC(=O)Nc1cccc(S(=O)(=O)Nc2cccc([C@@H](CC(=O)O)NC(=O)Nc3ccc(NC(=O)N(C)CCN(C)CCN(C)CC(=O)N[C@@H](CC(N)=O)C(=O)N4CCC[C@H]4C(=O)N[C@H](C(=O)N=S(C)(=O)Cc4cc5cc(c4)OC(C)CCOc4cc(F)ccc4-c4nc(ncc4F)N5)C(C)C)cc3)c2)c1` (relative stereo) [Compound 6], the AC50 in experiment [1] (with (+) neutrophil elastase) is at most 10 nM; in experiment [1] (setting [9]), at most 10 nM; in experiment [2] (setting [10]), at most 10 nM; in experiment [2] (setting [11]) it was at most 10 nM; in experiment [3] (setting [12]), at most 10 nM; in experiment [3] (setting [13]) it was 100 to 1000 nM. Also, the AC50 in experiment [8] (setting [18]) and in experiment [8] (setting [17]) was at most 10 nM in each case. The IC50 in experiment [5] (setting [14]) was at most 1 nM; in experiment [5] (setting [11]), above 100 nM; in experiment [6] (setting [15]), at most 1 nM; in experiment [6] (setting [13]), above 100 nM; in experiment [7] (setting [16]), at most 1 nM; in experiment [7] (setting [17]), 11 to 100 nM.

Take `CCCNC(=O)Nc1cccc(S(=O)(=O)Nc2cccc([C@@H](CC(=O)O)NC(=O)Nc3ccc(NC(=O)NCCOCCOCCOCCC(=O)NCCCC[C@H](NC(=O)CCOCCOCCOCCNC(=O)Nc4ccc(NC(=O)N[C@H](CC(=O)O)c5cccc(NS(=O)(=O)c6cccc(NC(=O)NCCC)c6)c5)cc4)C(=O)NCCOCCOCCOCCC(=O)N[C@@H](CC(=O)O)C(=O)N4CCC[C@H]4C(=O)N[C@H](C(=O)N=[S@](C)(=O)Cc4cc5cc(c4)O[C@H](C)CCOc4cc(F)ccc4-c4nc(ncc4F)N5)C(C)C)cc3)c2)c1` (relative stereo) [Compound 31]: the AC50 was at most 10 nM in experiment [1] (with (+) neutrophil elastase); above 1000 nM in experiment [1] (setting [9]); at most 10 nM in experiment [2] (setting [10]); above 1000 nM in experiment [2] (setting [11]); at most 10 nM in experiment [3] (setting [12]); 100 to 1000 nM in experiment [3] (setting [13]). Besides, the figures for the AC50 in experiment [8] (setting [18]) and in experiment [8] (setting [17]) were at most 10 nM and 100 to 1000 nM, respectively.

On to `CCCNC(=O)Nc1cccc(S(=O)(=O)Nc2cccc([C@@H](CC(=O)O)NC(=O)Nc3ccc(NC(=O)NCCOCCOCCOCCC(=O)N[C@@H](CC(=O)O)C(=O)N4CCC[C@H]4C(=O)N[C@H](C(=O)N=[S@](C)(=O)Cc4cc5nc(c4)O[C@@H](C)CCCCOc4cc(F)ccc4-c4cc(ncc4F)N5)C(C)C)cc3)c2)c1` (relative stereo) [Compound 55], for which the AC50 was 11 to 100 nM in experiment [1] (with (+) neutrophil elastase); above 1000 nM in experiment [1] (setting [9]); 11 to 100 nM in experiment [2] (setting [10]); above 1000 nM in experiment [2] (setting [11]); 11 to 100 nM in experiment [3] (setting [12]); above 1000 nM in experiment [3] (setting [13]). The concentration at half-maximal activity (AC50) in experiment [8] (setting [18]) is at most 10 nM; in experiment [8] (setting [17]), above 1000 nM.

Regarding `CCCNC(=O)Nc1cccc(S(=O)(=O)Nc2cccc([C@@H](CC(=O)O)NC(=O)Nc3ccc(NC(=O)NCCN(C)CCN(C)CCN(C)CC(=O)N[C@@H](CC(N)=O)C(=O)N4CCC[C@H]4C(=O)N[C@H](C(=O)N=S(C)(=O)Cc4cc5nc(c4)OCCCOc4cc(F)ccc4-c4cc(ncc4F)N5)C(C)C)cc3)c2)c1` (mixture of isomers) [Compound 22], the AC50 in experiment [1] (with (+) neutrophil elastase) is at most 10 nM; in experiment [1] (setting [9]), 100 to 1000 nM; in experiment [2] (setting [10]) it was at most 10 nM; in experiment [2] (setting [11]), 100 to 1000 nM; in experiment [3] (setting [12]), at most 10 nM; in experiment [3] (setting [13]), 100 to 1000 nM. Moreover, the AC50 in experiment [8] (setting [18]) is at most 10 nM; in experiment [8] (setting [17]) it was 100 to 1000 nM.

As to `CCCNC(=O)Nc1cccc(S(=O)(=O)Nc2cccc([C@@H](CC(=O)O)NC(=O)Nc3ccc(NC(=O)NCCOCCOCCOCCC(=O)N[C@@H](CC(=O)O)C(=O)N4CCC[C@H]4C(=O)N[C@@H](C(=O)N=[S@@](C)(=O)Cc4cc5cc(c4)O[C@@H](C)CCOc4cc(F)ccc4-c4nc(ncc4F)N5)C(C)C)cc3)c2)c1` (relative stereo) [Compound 39, N-(14-{4-[({(1R)-2-carboxy-1-[3-({3-[(propylcarbamoyl)amino]benzene-1-sulfonyl}amino)phenyl]ethyl}carbamoyl)amino]anilino}-14-oxo-4,7,10-trioxa-13-azatetradecanan-1-oyl)-L-alpha-aspartyl-L-prolyl-N—[(R*)—{[(4R*)-15,19-difluoro-4-methyl-3,4-dihydro-2H,11H-12,16-(azeno)-10,6-(metheno)-1,5,11,13-benzodioxadiazacyclooctadecin-8-yl]methyl}(methyl)oxo-lambda^6-sulfanylidene]-D-valinamide], the AC50 in experiment [1] (with (+) neutrophil elastase) is at most 10 nM; in experiment [1] (setting [9]), 100 to 1000 nM; in experiment [2] (setting [10]), at most 10 nM; in experiment [2] (setting [11]) it was 100 to 1000 nM; in experiment [3] (setting [12]) it was at most 10 nM; in experiment [3] (setting [13]), 100 to 1000 nM. Further, the half-maximal activity concentration (AC50) in experiment [8] (setting [18]) was at most 10 nM; in experiment [8] (setting [17]), 100 to 1000 nM.

In the case of `CCCNC(=O)Nc1cccc(S(=O)(=O)Nc2cccc([C@@H](CC(=O)O)NC(=O)Nc3ccc(NC(=O)NCCOCCOCCOCCC(=O)N[C@@H](CC(=O)OCCC[N+](C)(C)C)C(=O)N4CCC[C@H]4C(=O)N[C@H](C(=O)N=S(C)(=O)Cc4cc5cc(c4)OCCCCOc4cc(F)ccc4-c4nc(ncc4F)N5)C(C)C)cc3)c2)c1` (single isomer, unassigned) [Compound 20, trifluoroacetate], the AC50 is 11 to 100 nM in experiment [1] (with (+) neutrophil elastase); above 1000 nM in experiment [1] (setting [9]); 11 to 100 nM in experiment [2] (setting [10]); above 1000 nM in experiment [2] (setting [11]); 11 to 100 nM in experiment [3] (setting [12]); above 1000 nM in experiment [3] (setting [13]). Besides, the half-maximal activity concentration (AC50) in experiment [8] (setting [18]) lay in the range of 11 to 100 nM; in experiment [8] (setting [17]) it was 100 to 1000 nM.

As to `CCCNC(=O)Nc1cccc(S(=O)(=O)Nc2cccc([C@@H](CC(=O)O)NC(=O)Nc3ccc(NC(=O)NCCOCCOCCOCCC(=O)NCCCC[C@H](NC(=O)CCOCCOCCOCCNC(=O)Nc4ccc(NC(=O)N[C@H](CC(=O)O)c5cccc(NS(=O)(=O)c6cccc(NC(=O)NCCC)c6)c5)cc4)C(=O)NCCN(C)CCN(C)CCN(C)CC(=O)N[C@@H](CC(N)=O)C(=O)N4CCC[C@H]4C(=O)N[C@H](C(=O)N=[S@@](C)(=O)Cc4cc5cc(c4)O[C@@H](C)CCOc4cc(F)ccc4-c4nc(ncc4F)N5)C(C)C)cc3)c2)c1` (relative stereo) [Compound 28], the concentration at half-maximal activity (AC50) in experiment [1] (with (+) neutrophil elastase) is at most 10 nM; in experiment [1] (setting [9]), above 1000 nM; in experiment [2] (setting [10]), at most 10 nM; in experiment [2] (setting [11]), 100 to 1000 nM; in experiment [3] (setting [12]) it was at most 10 nM; in experiment [3] (setting [13]), 100 to 1000 nM. For the same molecule, the figures for the half-maximal activity concentration (AC50) in experiment [8] (setting [18]) and in experiment [8] (setting [17]) were at most 10 nM and 100 to 1000 nM, respectively.
